Laboratory results reported in US11578087B2, “Oxaborole esters and uses thereof” (priority 2016, dated 2023).

Key:
[1] = test system: IL3000 T. congolense (drug sensitive) strain; assay: In vitro Alamar Blue 72 h drug sensitivity assay for T. congolense; assay type: cell-based, Trypanosoma congolense; settings: Trypanosoma congolense, 72 h, bloodstream form, 69 h + 3 h Resazurin, 34° C., read-out: IC50: I Org. Growth T. congolense 3 d
Summary of the method: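 Bloodstream-form trypanosomes in HMI medium with 20% bovine serum were exposed to compounds for 69 h at 34° C, 5% CO2, then resazurin for another 3 h. Fluorescence read at ex 536/em 588 nm; IC50 from 11-point sigmoidal dose-response curves, at least three independent runs.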

[2] = test system: T. cruzi amastigote (Td Tomato-modified) in Vero cells; assay: In vitro IC50 measurement of T. cruzi amastigote killing using Td Tomato-modified T. cruzi; assay type: cell-based; settings: Trypanosoma cruzi, 72 h, fluorescence, read-out: IC50: I Org. amastigote Growth T. cruzi 3 d
Summary of the method: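 Vero cells infected with Td Tomato-expressing T. cruzi, treated with compound at 5 uM to 5 nM final, incubated 72 h at 37 °C. Fluorescence (Ex 544/Em 612 nm) read at Day 0 and Day 3, Day 0 subtracted; IC50 and IC90 by nonlinear regression.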

Q: For `Cc1c(C(=O)N[C@H](C(=O)OCC(F)(F)F)C(C)C)ccc2c1B(O)OC2` [Example 6-151, 2,2,2-Trifluoroethyl (1-hydroxy-7-methyl-1,3-dihydrobenzo[c][1,2]oxaborole-6-carbonyl)-L-valinate], which IC50 [1] is on record?
A: < 0.5 nM

Q: What about the IC50 [2] of the same compound?
A: ≤ 20 nM

Q: `Cc1c(C(=O)N[C@H](C(=O)OCC2(O)CCCC2)C(C)C)ccc2c1B(O)OC2` [Example 6-220, (1-hydroxycyclopentyl)methyl (1-hydroxy-7-methyl-1,3-dihydrobenzo[c][1,2]oxaborole-6-carbonyl)-L-valinate] was tested. Which IC50 [1] did it give?
A: 0.51 to 9.99 nM

Q: And the IC50 [2]?
A: ≤ 20 nM

Q: `Cc1c(C(=O)N[C@H](C(=O)OCc2ncc(F)cn2)C(C)C)ccc2c1B(O)OC2` [Example 6-202, (5-fluoropyrimidin-2-yl)methyl (1-hydroxy-7-methyl-1,3-dihydrobenzo[c][1,2]oxaborole-6-carbonyl)-L-valinate] was tested. Which IC50 [1] did it give?
A: < 0.5 nM

Q: And the IC50 [2]?
A: ≤ 20 nM

Q: Which results are given for `Cc1c(C(=O)N[C@H](C(=O)OCc2ccc(CN3CCOCC3)cc2)C(C)C)ccc2c1B(O)OC2` [Example 6-130, 4-(Morpholinomethyl)benzyl (1-hydroxy-7-methyl-1,3-dihydrobenzo[c][1,2]oxaborole-6-carbonyl)-L-valinate]?
A: IC50 [1]: < 0.5 nM; IC50 [2]: 21 to 999 nM

Q: `Cc1c(C(=O)N[C@H](C(=O)OCC2(O)CCCCC2)C(C)C)ccc2c1B(O)OC2` [Example 6-229, (1-hydroxycyclohexyl)methyl (1-hydroxy-7-methyl-1,3-dihydrobenzo[c][1,2]oxaborole-6-carbonyl)-L-valinate] was tested. Which IC50 [1] did it give?
A: < 0.5 nM

Q: What about the IC50 [2] of the same compound?
A: ≤ 20 nM

Q: What does the source list for `CCc1c(C(=O)N[C@H](C(=O)OCc2ccc(S(C)(=O)=O)cc2)C(C)C)ccc2c1B(O)OC2` [Example 6-076, 4-(Methylsulfonyl)benzyl (7-ethyl-1-hydroxy-1,3-dihydrobenzo[c][1,2]oxaborole-6-carbonyl)-L-valinate]?
A: IC50 [1]: 0.51 to 9.99 nM; IC50 [2]: 21 to 999 nM

Q: How did the IC50 [1] turn out when `Cc1c(C(=O)N[C@H](C(=O)OCc2ccc(Cl)cc2)C(C)C)ccc2c1B(O)OC2` [Example 6-040, 4-Chlorobenzyl (1-hydroxy-7-methyl-1,3-dihydrobenzo[c][1,2]oxaborole-6-carbonyl)-L-valinate] was run?
A: < 0.5 nM

Q: What about the IC50 [2] of the same compound?
A: ≤ 20 nM

Q: `Cc1c(C(=O)N[C@H](C(=O)OCc2cccc(OC(F)(F)F)c2)C(C)C)ccc2c1B(O)OC2` [Example 6-055, 3-Trifluoromethoxybenzyl (1-hydroxy-7-methyl-1,3-dihydrobenzo[c][1,2]oxaborole-6-carbonyl)-L-valinate] was tested. Which IC50 [1] did it give?
A: < 0.5 nM

Q: And the IC50 [2]?
A: ≤ 20 nM

Q: What does the source list for `Cc1c(C(=O)N[C@H](C(=O)OCc2cccc(N3CCN(C)CC3)n2)C(C)C)ccc2c1B(O)OC2` [Example 6-201, (6-(4-methylpiperazin-1-yl)pyridin-2-yl)methyl (1-hydroxy-7-methyl-1,3-dihydrobenzo[c][1,2]oxaborole-6-carbonyl)-L-valinate]?
A: IC50 [1]: < 0.5 nM; IC50 [2]: 21 to 999 nM

Q: `Cc1c(C(=O)N[C@H](C(=O)OCc2ccc(F)cc2)C2CCC2)ccc2c1B(O)OC2` [Example 6-059, 4-Fluorobenzyl (S)-2-cyclobutyl-2-(1-hydroxy-7-methyl-1,3-dihydrobenzo[c][1,2]oxaborole-6-carboxamido)acetate] was tested. Which IC50 [1] did it give?
A: 0.51 to 9.99 nM

Q: And the IC50 [2]?
A: 21 to 999 nM

Q: Which IC50 [1] does the source give for `CC(C)[C@H](NC(=O)c1ccc2c(c1)B(O)OC2)C(=O)O[C@H](C)c1ccccc1` [Example 6-020, (R)-1-Phenylethyl (1-hydroxy-1,3-dihydrobenzo[c][1,2]oxaborole-6-carbonyl)-L-valinate] here?
A: 10 to 5000 nM

Q: And the IC50 [2]?
A: ≥ 1000 nM

Q: Which results are given for `COCCOC(=O)[C@@H](NC(=O)c1ccc2c(c1C)B(O)OC2)C(C)C` [Example 6-107, 2-Methoxyethyl (1-hydroxy-7-methyl-1,3-dihydrobenzo[c][1,2]oxaborole-6-carbonyl)-L-valinate]?
A: IC50 [1]: < 0.5 nM; IC50 [2]: ≤ 20 nM

Q: `CSCC[C@H](NC(=O)c1ccc2c(c1)B(O)OC2)C(=O)OCc1ccccc1` [Example 6-008, Benzyl (1-hydroxy-1,3-dihydrobenzo[c][1,2]oxaborole-6-carbonyl)-L-methioninate] was tested. Which IC50 [1] did it give?
A: 0.51 to 9.99 nM

Q: And the IC50 [2]?
A: 21 to 999 nM

Q: `Cc1c(C(=O)N[C@H](C(=O)OCc2ccc(F)c(F)c2)C(C)C)ccc2c1B(O)OC2` [Example 6-166, 3,4-Difluorobenzyl (1-hydroxy-7-methyl-1,3-dihydrobenzo[c][1,2]oxaborole-6-carbonyl)-L-valinate] was tested. Which IC50 [1] did it give?
A: < 0.5 nM

Q: And the IC50 [2]?
A: ≤ 20 nM

Q: How did the IC50 [1] turn out when `Cc1c(C(=O)N[C@H](C(=O)OCc2ccc(S(C)(=O)=O)cc2)C(C)C)ccc2c1B(O)OC2` [Example 6-056, 4-(Methylsulfonyl)benzyl (1-hydroxy-7-methyl-1,3-dihydrobenzo[c][1,2]oxaborole-6-carbonyl)-L-valinate] was run?
A: 0.51 to 9.99 nM

Q: What about the IC50 [2] of the same compound?
A: 21 to 999 nM

Q: `Cc1c(C(=O)N[C@H](C(=O)OCc2nccs2)C(C)C)ccc2c1B(O)OC2` [Example 6-124, Thiazol-2-ylmethyl (1-hydroxy-7-methyl-1,3-dihydrobenzo[c][1,2]oxaborole-6-carbonyl)-L-valinate] was tested. Which IC50 [1] did it give?
A: < 0.5 nM

Q: And the IC50 [2]?
A: 21 to 999 nM

Q: For `Cc1c(C(=O)N[C@H](C(=O)OCc2ccc(F)cc2)C(C)C)ccc2c1B(O)OC2` [Example 6-165, 4-Fluorobenzyl (1-hydroxy-7-methyl-1,3-dihydrobenzo[c][1,2]oxaborole-6-carbonyl)-L-valinate], which IC50 [1] is on record?
A: < 0.5 nM

Q: And the IC50 [2]?
A: ≤ 20 nM

Q: How did the IC50 [1] turn out when `Cc1c(C(=O)N[C@H](C(=O)OCCc2ccc(F)cc2)C(C)C)ccc2c1B(O)OC2` [Example 6-121, 4-Fluorophenethyl (1-hydroxy-7-methyl-1,3-dihydrobenzo[c][1,2]oxaborole-6-carbonyl)-L-valinate] was run?
A: < 0.5 nM

Q: And the IC50 [2]?
A: ≤ 20 nM

Q: Which IC50 [1] does the source give for `Cc1c(C(=O)NC(C(=O)OCc2ccc(F)cc2)C(C)(C)F)ccc2c1B(O)OC2` (stereo not drawn) [Example 6-091, 4-Fluorobenzyl 3-fluoro-2-(1-hydroxy-7-methyl-1,3-dihydrobenzo[c][1,2]oxaborole-6-carboxamido)-3-methylbutanoate] here?
A: < 0.5 nM

Q: What about the IC50 [2] of the same compound?
A: ≤ 20 nM

Q: What does the source list for `Cc1c(C(=O)N[C@H](C(=O)OCc2cccc(S(C)(=O)=O)c2)C(C)C)ccc2c1B(O)OC2` [Example 6-080, 3-(Methylsulfonyl)benzyl (1-hydroxy-7-methyl-1,3-dihydrobenzo[c][1,2]oxaborole-6-carbonyl)-L-valinate]?
A: IC50 [1]: 0.51 to 9.99 nM; IC50 [2]: 21 to 999 nM

Q: How did the IC50 [1] turn out when `Cc1c(C(=O)N[C@H](C(=O)OCc2cc(F)cc(F)c2)C(C)(C)O)ccc2c1B(O)OC2` [Example 6-099, 3,5-Difluorobenzyl (S)-3-hydroxy-2-(1-hydroxy-7-methyl-1,3-dihydrobenzo[c][1,2]oxaborole-6-carboxamido)-3-methylbutanoate] was run?
A: < 0.5 nM

Q: What about the IC50 [2] of the same compound?
A: 21 to 999 nM

Q: What does the source list for `Cc1c(C(=O)N[C@H](C(=O)OCc2cccc(C#N)c2)C(C)C)ccc2c1B(O)OC2` [Example 6-047, 3-Cyanobenzyl (1-hydroxy-7-methyl-1,3-dihydrobenzo[c][1,2]oxaborole-6-carbonyl)-L-valinate]?
A: IC50 [1]: < 0.5 nM; IC50 [2]: ≤ 20 nM

Q: Which results are given for `Cc1c(C(=O)N[C@H](C(=O)OCC(CO)CO)C(C)C)ccc2c1B(O)OC2` [Example 6-149, 3-hydroxy-2-(hydroxymethyl)propyl (1-hydroxy-7-methyl-1,3-dihydrobenzo[c][1,2]oxaborole-6-carbonyl)-L-valinate]?
A: IC50 [1]: 10 to 5000 nM; IC50 [2]: ≥ 1000 nM

Q: For `CC(C)[C@H](NC(=O)c1ccc2c(c1C1CC1)B(O)OC2)C(=O)OCc1ccccc1` [Example 6-058, Benzyl (7-cyclopropyl-1-hydroxy-1,3-dihydrobenzo[c][1,2]oxaborole-6-carbonyl)-L-valinate], which IC50 [1] is on record?
A: < 0.5 nM

Q: What about the IC50 [2] of the same compound?
A: ≥ 1000 nM

Q: For `Cc1c(C(=O)N[C@H](C(=O)OCc2cc(F)c(F)c(F)c2)C(C)C)ccc2c1B(O)OC2` [Example 6-100, 3,4,5-Trifluorobenzyl (1-hydroxy-7-methyl-1,3-dihydrobenzo[c][1,2]oxaborole-6-carbonyl)-L-valinate], which IC50 [1] is on record?
A: < 0.5 nM

Q: What about the IC50 [2] of the same compound?
A: ≤ 20 nM

Q: With `Cc1c(C(=O)N[C@H](C(=O)O[C@@H]2CCOC2)C(C)C)ccc2c1B(O)OC2` [Example 6-141, (R)-Tetrahydrofuran-3-yl (1-hydroxy-7-methyl-1,3-dihydrobenzo[c][1,2]oxaborole-6-carbonyl)-L-valinate] as the compound, how does the IC50 [1] read?
A: < 0.5 nM

Q: And the IC50 [2]?
A: 21 to 999 nM

Q: How did the IC50 [1] turn out when `CC(C)[C@H](NC(=O)c1ccc2c(c1)B(O)OC2(C)C)C(=O)OCc1ccc(F)cc1` [Example 6-033, 4-Fluorobenzyl (1-hydroxy-3,3-dimethyl-1,3-dihydrobenzo[c][1,2]oxaborole-6-carbonyl)-L-valinate] was run?
A: 10 to 5000 nM

Q: And the IC50 [2]?
A: ≥ 1000 nM

Q: How did the IC50 [1] turn out when `Cc1c(C(=O)N[C@H](C(=O)OCc2ccc(OCCN3CCCC3)c(F)c2)C(C)C)ccc2c1B(O)OC2` [Example 6-242, 3-Fluoro-4-(2-(pyrrolidin-1-yl)ethoxy)benzyl (1-hydroxy-7-methyl-1,3-dihydrobenzo[c][1,2]oxaborole-6-carbonyl)-L-valinate] was run?
A: 0.51 to 9.99 nM

Q: And the IC50 [2]?
A: ≤ 20 nM

Q: Which IC50 [1] does the source give for `Cc1c(C(=O)NC2(C(=O)OCc3ccccn3)COC2)ccc2c1B(O)OC2` [Example 6-223, Pyridin-2-ylmethyl 3-(1-hydroxy-7-methyl-1,3-dihydrobenzo[c][1,2]oxaborole-6-carboxamido)oxetane-3-carboxylate] here?
A: 10 to 5000 nM

Q: And the IC50 [2]?
A: 21 to 999 nM

Q: What does the source list for `CC(C)[C@H](NC(=O)c1ccc2c(c1C(F)F)B(O)OC2)C(=O)OCc1ccc(F)cc1` [Example 6-073, 4-Fluorobenzyl (7-(difluoromethyl)-1-hydroxy-1,3-dihydrobenzo[c][1,2]oxaborole-6-carbonyl)-L-valinate]?
A: IC50 [1]: 0.51 to 9.99 nM; IC50 [2]: ≤ 20 nM
